Data: US20100298141A1, “SUBSTITUTED PYRIDINE N-OXIDE HERBICIDES” (E. I. DU PONT DE NEMOURS AND COMPANY, priority 2007, published 2010)

How the values were obtained:
[1] = test system: wild oat; experiment: Test C pre-/postemergence test; assay type: in vivo, Avena fatua
In short: (§1)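 Compounds in a non-phytotoxic solvent with surfactant applied preemergence to seeded pots and, at the same time, postemergence to plants 2–18 cm tall (1- to 4-leaf stage). Paddy tests: pots flooded to 3 cm, compound applied into the water, depth held throughout.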

[2] = test system: morningglory; experiment: Test C pre-/postemergence test; assay type: in vivo, Ipomoea coccinea
In short: as §1

[3] = test system: catchweed bedstraw; experiment: Test C pre-/postemergence test; assay type: in vivo, Galium aparine
In short: as §1

[4] = test system: soybean; experiment: Test C pre-/postemergence test; assay type: in vivo, Glycine max
In short: as §1

[5] = test system: green foxtail; experiment: Test C pre-/postemergence test; assay type: in vivo, Setaria viridis
In short: as §1

[6] = test system: corn; experiment: Test C pre-/postemergence test; assay type: in vivo, Zea mays
In short: as §1

[7] = test system: velvetleaf; experiment: Test C pre-/postemergence test; assay type: in vivo, Abutilon theophrasti
In short: as §1

[8] = test system: Italian ryegrass; experiment: Test C pre-/postemergence test; assay type: in vivo, Lolium multiflorum
In short: as §1

[9] = test system: johnsongrass; experiment: Test C pre-/postemergence test; assay type: in vivo, Sorghum halepense
In short: as §1

[10] = test system: woolly cupgrass; experiment: Test C pre-/postemergence test; assay type: in vivo, Eriochloa villosa
In short: as §1

[11] = test system: blackgrass; experiment: Test C pre-/postemergence test; assay type: in vivo, Alopecurus myosuroides
In short: as §1

[12] = test system: downy brome; experiment: Test C pre-/postemergence test; assay type: in vivo, Bromus tectorum
In short: as §1

[13] = test system: duck salad; experiment: Test C flooded paddy test; assay type: in vivo, Heteranthera limosa; conditions: Flood
In short: (§2)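 Ratings were visual and made relative to untreated controls after 13 to 15 greenhouse days.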

[14] = test system: giant foxtail; experiment: Test C pre-/postemergence test; assay type: in vivo, Setaria faberii
In short: as §1

[15] = test system: velvetleaf; experiment: Test A pre-/postemergence greenhouse test; assay type: in vivo, Abutilon theophrasti; conditions: for Velvetleaf plant response rating: 0 to 100 scale
In short: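 Two application timings were run side by side in the greenhouse. Before emergence, compound went onto the soil surface of loam–sand pots as a directed spray; after emergence, plants at 2–10 cm and the one- to two-leaf stage were treated. Visual injury versus controls was rated at approximately day ten.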

[16] = test system: cocklebur; experiment: Test C pre-/postemergence test; assay type: in vivo, Xanthium strumarium
In short: as §1

[17] = test system: barnyardgrass; experiment: Test C flooded paddy test; assay type: in vivo, Echinochloa crus-galli; conditions: Flood
In short: as §2

[18] = 62 g ai/ha, Preemergence, scale 0 to 100
[19] = 125 g ai/ha, preemergence, scale 0 (no effect) to 100 (complete control)
[20] = Preemergence, 31 g ai/ha, scale 0 to 100 (0 no effect, 100 complete control)
[21] = preemergence, 250 g ai/ha, scale 0 (no effect) to 100 (complete control)
[22] = 62 g ai/ha, scale 0 to 100 (0 no effect, 100 complete control)
[23] = 250 g ai/ha, scale 0 to 100, 0 no effect, 100 complete control, 13 to 15 days

C#CCOc1c(CS(=O)(=O)c2cccc[n+]2[O-])c(C(F)(F)F)nn1C [Compound 103]
Oat, Wild plant response rating [1, 18]: 60 | Oat, Wild plant response rating [1, 19]: 100 | Plant response rating, Oat, Wild [1, 20]: 40 | Oat, Wild plant response rating [1, 21]: 100 | Morningglory plant response rating [2, 18]: 55 | Morningglory plant response rating [2, 19]: 80 | Plant response rating, Morningglory [2, 20]: 0 | Morningglory plant response rating [2, 21]: 98 | Galium plant response rating [3, 18]: 98 | Galium plant response rating [3, 19]: 98 | Galium plant response rating [3, 21]: 100 | Soybean plant response rating [4, 18]: 0 | Soybean plant response rating [4, 19]: 10 | Plant response rating, Soybean [4, 20]: 0 | Soybean plant response rating [4, 21]: 50 | Foxtail, Green plant response rating [5, 18]: 98 | Foxtail, Green plant response rating [5, 19]: 100 | Plant response rating, Foxtail, Green [5, 20]: 60 | Foxtail, Green plant response rating [5, 21]: 100 | Corn plant response rating [6, 18]: 0 | Corn plant response rating [6, 19]: 65 | Plant response rating, Corn [6, 20]: 0 | Corn plant response rating [6, 21]: 95 | Velvetleaf plant response rating [7, 18]: 55 | Velvetleaf plant response rating [7, 19]: 80 | Plant response rating, Velvetleaf [7, 20]: 0 | Velvetleaf plant response rating [7, 21]: 100 | Ryegrass, Italian plant response rating [8, 18]: 50 | Ryegrass, Italian plant response rating [8, 19]: 55 | Plant response rating, Ryegrass, Italian [8, 20]: 0 | Ryegrass, Italian plant response rating [8, 21]: 60 | Johnsongrass plant response rating [9, 18]: 100 | Johnsongrass plant response rating [9, 19]: 100 | Plant response rating, Johnsongrass [9, 20]: 30 | Johnsongrass plant response rating [9, 21]: 100 | Cupgrass, Woolly plant response rating [10, 18]: 30 | Cupgrass, Woolly plant response rating [10, 19]: 85 | Plant response rating, Cupgrass, Woolly [10, 20]: 0 | Cupgrass, Woolly plant response rating [10, 21]: 100 | Blackgrass plant response rating [11, 18]: 100 | Blackgrass plant response rating [11, 19]: 100 | Plant response rating, Blackgrass [11, 20]: 100 | Blackgrass plant response rating [11, 21]: 100 | Bromegrass, Downy plant response rating [12, 18]: 0 | Bromegrass, Downy plant response rating [12, 19]: 70 | Plant response rating, Bromegrass, Downy [12, 20]: 0 | Bromegrass, Downy plant response rating [12, 21]: 70 | Plant response rating, Ducksalad [13, 22]: 20 | Plant response rating, Ducksalad [13, 23]: 70 | Foxtail, Giant plant response rating [14, 18]: 95 | Foxtail, Giant plant response rating [14, 19]: 100 | Plant response rating, Foxtail, Giant [14, 20]: 55 | Foxtail, Giant plant response rating [14, 21]: 100 | Plant response rating, Velvetleaf ([15]; Postemergence, 125 g ai/ha, 0 to 100 scale where 0 is no effect and 100 is complete control): 40 | Velvetleaf plant response rating ([15]; Postemergence, 500 g ai/ha, 0 is no effect, 100 is complete control): 70 | Velvetleaf plant response rating ([15]; Preemergence, 125 g ai/ha, 0 no effect, 100 complete control): 20 | Velvetleaf plant response rating ([15]; Preemergence, 500 g ai/ha, 0 no effect, 100 complete control): 80 | Cocklebur plant response rating [16, 18]: 0 | Cocklebur plant response rating [16, 19]: 0 | Plant response rating, Cocklebur [16, 20]: 0 | Cocklebur plant response rating [16, 21]: 30 | Plant response rating, Barnyardgrass [17, 22]: 0 | Plant response rating, Barnyardgrass [17, 23]: 0
